Holding throughout (format): in vivo
The test system of one series is Helicotylenchus species. Put plainly: Nematicidal activity, sugar cane field, in furrow tank mix application. To be noted: fipronil 200, abamectin 90, mixture 200 + 90 g a.i./ha; for Nematode activity in the soil 90 days after planting: 1000 ml soil incl. roots, in furrow at planting, blank 317; for Efficacy/mortality: 90 days after planting, in furrow. As to the method:
(§1) Fipronil was used in the commercially available formulation Regent® 800 WG, containing Fipronil in a concentration of 800 g/kg. Abamectin was used in the commercially available EC formulation Vertimec® 18 CE, containing Abamectin in a concentration of 18 g/I.
(§2) Tank mixes of the commercial formulations of fipronil and abamectin diluted with water were prepared in a ratio such that the application rates identified in the tables below were achieved when 100 liter of tank mix formulation were applied to sugar cane in furrow.
(§3) The tank mix formulation was applied in furrow spraying over the sugar cane stems (cuttings/segments, 1 to 3 nodes segments) at the planting time.
(§4) The synergistic effect was determined by Limpel's formula. Synergism was evident if the observed effect for the mixture is greater than the expected calculated effect:
(§5) E=Expected activity of the mixture X=activity of compound X Y=activity of compound Y
(§6) Treatments were done mid of June 2009 in Brazil in sugar cane fields which had not been pretreated with nematicides, that is, in fields showing an average nematode population.
(§7) Treatments were done only at the time of planting, that is, no further in furrow treatment was conducted. Each treatment experiment was replicated 6 times.
(§8) Nematicidal activity for Helicotylenchus and Paratrichodorus species was evaluated before the spraying for different portions of 1000 ml of soils collected at different sites of the field (“blank” in Table 1).
(§9) 90 days after spraying the tank mix formulation, different portions of 1000 ml of soil (including roots) were collected at different sites of the field, and the soil and the root knots were evaluated for nematicidal activity of Helicotylenchus and Paratrichodorus species and efficacy/mortality, respectively.
(§10) Synergism was evident if the % observed mortality for the mixture was greater than the % expected mortality.

The next series relates to Paratrichodorus species. Described as above. To be noted: fipronil 200, abamectin 90, mixture 200 + 90 g a.i./ha; for Nematode activity in the soil 90 days after planting: 1000 ml soil incl. roots, in furrow at planting, blank 133; for Efficacy/mortality: 90 days after planting, in furrow. As to the method: as §1, §2, §3, §4, §5, §6, §7, §8, §9, §10
For a further series, the system named is sugar cane. Put plainly: Plant health activity: tillering of sugar cane. As to conditions: fipronil 200, abamectin 90, mixture 200 + 90 g a.i./ha; for No. of tillers 180 days after planting: average per 1.0 linear meter, in furrow at planting, blank 19.75; for % of increase: tillers 180 days after planting vs blank. The procedure: as §1, §2, §3, §4, §5
The tank mix formulation of the mixture of fipronil and abamectin was prepared as described above for testing of nematicidal activity. The tank mix formulation was applied to sugar cane as described above for testing of nematicidal activity.
Tillering was evaluated before the application of the tank mix (“blank” in Table 2) and 180 days after planting/application the tank mix formulation. Each replication (plot) was evaluated at 3 different randomized points, each point consisting of 1.0 linear meter of the central rows of the plot. Evaluation was done for 4 replications (plots).

The subject of series [1] is sugar cane (variety SP80-1842). Put plainly: Yield increase of sugar cane. To be noted: fipronil 200, abamectin 126, mixture 200 + 126 g a.i./ha; for Yield: in furrow at planting, untreated 102.81; for % increase of yield: vs untreated.

With `N#Cc1nn(-c2c(Cl)cc(C(F)(F)F)cc2Cl)c(N)c1[S+]([O-])C(F)(F)F` (stereo not shown) [Fipronil], in the series on Helicotylenchus species, the “Nematode activity in the soil 90 days after planting” value (shortened to “Nematode activity”) was found to be 367 and the Efficacy/mortality stood at 0%. Also, in the series on Paratrichodorus species, the “Nematode activity” value was found to be 100 and the Efficacy/mortality came out at 25%. Also, in the series on sugar cane, the “No. of tillers 180 days after planting” value is reported as 20.25 and the “% of increase” value was determined as 2.5%. In series [1], the Yield was 106.31 tons/ha and the “% increase of yield” value came out at 3.4%.
On to Abamectin, for which, in the series on Helicotylenchus species, the “Nematode activity” value was determined as 117 and the Efficacy/mortality was 63%. Further, in the series on Paratrichodorus species, the “Nematode activity” value is on record as 133 and the Efficacy/mortality is 0%. Also, in the series with sugar cane, the “No. of tillers 180 days after planting” value is 21.5 and the “% of increase” value is given as 8.9%. In series [1], the Yield was found to be 106.33 tons/ha and the “% increase of yield” value is reported as 3.4%.

These data come from patent US20130096077A1, “Nematicidal Mixtures for Use in Sugar Cane” (priority 2010, published 2013).
